Structures are written as SMILES. Values after ≈ are worked out from the molar mass of the structure shown.

A short description of one series: Water solubility. It is filed as physicochemical. Conditions: bei 25 °C.
Take `CC(Oc1c(I)c(C(=O)NC(CO)CO)c(I)c(C(=O)NC(CO)CO)c1I)C(=O)N(C)CC(O)C(O)CO` (stereo not shown) [Beispiel 22, (5-(1(N-Methyl-N-2,3,4-trihydroxybutyl)aminocarbonyl)ethoxy)-2,4,6-trijodisophthalsäure-bis(1,3-dihydroxyisopropylamid)]: the Wasserlöslichkeit is listed as > 100 % (g/v).

The series is the same for the next values; noted with them: result in words, no temperature stated.
For the molecule `O=C(NC(CO)CO)c1c(I)c(OCC(O)CO)c(I)c(C(=O)NC(CO)CO)c1I` (stereo not shown) [Beispiel 8, 5-(2,3-Dihydroxypropyl)oxy-2,4,6-trijodisophthalsäure-bis(1,3-dihydroxy-isopropylamid)], the Wasserlöslichkeit entry was “löslich in Wasser”.
Consider `O=C(NC(CO)CO)c1c(I)c(OC(CO)CO)c(I)c(C(=O)NC(CO)CO)c1I` [Beispiel 9, 5-(1,3-Dihydroxyisopropyl)oxy-2,4,6-trijodisophthalsäure-bis(1,3-di-hydroxyisopropylamid)], for which the Wasserlöslichkeit result is listed as “in Wasser leicht löslich”.
In the case of `O=C(NC(CO)CO)c1c(I)c(OCC(CO)(CO)CO)c(I)c(C(=O)NC(CO)CO)c1I` [Beispiel 10, 5-(2,2-Bis-(hydroxymethyl)-3-hydroxypropyl)oxy-2,4,6-trijodisophthal-säure-bis(1,3-dihydroxyisopropylamid)], the Wasserlöslichkeit result is recorded as “spielend leicht wasserlöslich”.
Take `C[C@@H](Oc1c(I)c(C(=O)NC(CO)CO)c(I)c(C(=O)NC(CO)CO)c1I)C(=O)NC(CO)CO` [Beispiel 14, R(-)-5-(1(1,3-Dihydroxyisopropylaminocarbonyl)ethoxy)-2,4,6-trijodiso-phthalsäure-bis(1,3-dihydroxyisopropylamid)]: the Wasserlöslichkeit result is “gering”.

The same series, now with this note: water, bei 20 °C; read-out: Wasserlöslichkeit.
On to `CCOCCOCCOc1c(I)c(C(=O)NC(CO)CO)c(I)c(C(=O)NC(CO)CO)c1I` [Beispiel 1, 5-(3,6-Dioxaoctyl)oxy-2,4,6-trijodisophthalsäure-bis(1,3-dihydroxyiso-propylamid)], for which the solubility was found to be 60 mg/mL (≈ 73 mM).
As for `O=C(NC(CO)CO)c1c(I)c(OCCCOCCOCCOCCOCCCO)c(I)c(C(=O)NC(CO)CO)c1I` [Beispiel 6, 5-(16-Hydroxy-4,7,10,13-tetraoxahexadecyl)oxy-2,4,6-trijod-isophthalsäure-bis(1,3-dihydroxyisopropylamid)], the solubility is above 1000 mg/mL.
On the same count and under the same terms, the value for `O=C(COc1c(Br)c(C(=O)NC(CO)CO)c(Br)c(C(=O)NC(CO)CO)c1Br)NC(CO)CO` [Beispiel 12, 5-(1,3-Dihydroxyisopropylaminocarbonyl)methoxy-2,4,6-tribromisophthal-säure-bis(1,3-dihydroxyisopropylamid)] was above 1000 mg/mL.
The same measure, in the same setting: the value for `CC(CO)(CO)NC(=O)COc1c(I)c(C(=O)NC(CO)CO)c(I)c(C(=O)NC(CO)CO)c1I` [Beispiel 15, 5-(1,3-Dihydroxy-2-methylisopropylaminocarbonyl)methoxy-2,4,6-trijodiso-phthalsäure-bis(1,3-dihydroxyisopropylamid)] was 16 mg/mL (≈ 18.8 mM); that for `CN(CC(O)CO)C(=O)COc1c(I)c(C(=O)NC(CO)CO)c(I)c(C(=O)NC(CO)CO)c1I` (stereo not shown) [Beispiel 19, 5-(N-Methyl-N-2,3-dihydroxypropyl)aminocarbonylmethoxy-2,4,6-trijodiso-phthalsäure-bis-(1,3-dihydroxyisopropylamid)] was above 1000 mg/mL.
On the same count and under the same terms, the value for `CC(Oc1c(I)c(C(=O)NC(CO)CO)c(I)c(C(=O)NC(CO)CO)c1I)C(=O)N(C)CC(O)CO` (stereo not shown) [Beispiel 20 R,S] was above 1000 mg/mL; that for `C[C@@H](Oc1c(I)c(C(=O)NC(CO)CO)c(I)c(C(=O)NC(CO)CO)c1I)C(=O)N(C)CC(O)CO` (stereo partly shown) [Beispiel 20 R] was above 1000 mg/mL; that for `CN(C[C@H](O)[C@H](O)CO)C(=O)COc1c(I)c(C(=O)NC(CO)CO)c(I)c(C(=O)NC(CO)CO)c1I` [Beispiel 21, 5-(N-Methyl-N-2,3,4-trihydroxybutyl)aminocarbonylmethoxy-2,4,6-trijod-isophthalsäure-bis(1,3-dihydroxyisopropylamid)] was above 1000 mg/mL.
Turning to `CN(C[C@H](O)[C@@H](O)[C@H](O)[C@H](O)CO)C(=O)COc1c(I)c(C(=O)NC(CO)CO)c(I)c(C(=O)NC(CO)CO)c1I` [Beispiel 27, 5-(N-Methyl-N-2,3,4,5,6-pentahydroxyhexyl)aminocarbonylmethoxy-2,4,6-trijodisophthalsäure-bis(1,3-dihydroxyisopropylamid)], the solubility was 1000 mg/mL (≈ 1060 mM).
Turning to `CN(C[C@H](O)[C@@H](O)[C@H](O)[C@H](O)CO)C(=O)COc1c(Br)c(C(=O)NC(CO)CO)c(Br)c(C(=O)NC(CO)CO)c1Br` [Beispiel 29, 5(N-Methyl-N-2,3,4,5,6-pentahydroxyhexyl)aminocarbonylmethoxy-2,4,6-tribromisophthalsäure-bis(1,3-dihydroxyisopropylamid)], the solubility is above 1000 mg/mL.
As for `O=C(COc1c(I)c(C(=O)NCC(O)CO)c(I)c(C(=O)NCC(O)CO)c1I)NCC(O)CO` (stereo not shown) [Beispiel 32, 5-(2,3-Dihydroxypropylaminocarbonylmethoxy)-2,4,6-trijodisophthalsäure-bis(2,3-dihydroxypropylamid)], the solubility came out at 10 mg/mL (≈ 11.9 mM).

Staying with this series, now noted: water, bei 25 °C; read-out: Wasserlöslichkeit.
Regarding `CC(Oc1c(I)c(C(=O)NC(CO)CO)c(I)c(C(=O)NC(CO)CO)c1I)C(=O)N(CCO)CCO` (racemic) [Beispiel 18], the solubility is above 1000 mg/mL.
Same read-out and setting: the result for `C[C@@H](Oc1c(I)c(C(=O)NC(CO)CO)c(I)c(C(=O)NC(CO)CO)c1I)C(=O)NC(CO)(CO)CO` [Beispiel 16, R(-)-5(1(1,3-Dihydroxy-2-hydroxymethyl-isopropylaminocarbonyl)ethoxy)-2,4,6-trijodisophthalsäure-bis(1,3-dihydroxyisopropylamid)] reads 25 mg/mL (≈ 28.4 mM); that for `O=C(NC(CO)CO)c1c(I)c(OCC(=O)N(CCO)CCO)c(I)c(C(=O)NC(CO)CO)c1I` [Beispiel 17], above 1000 mg/mL.
Consider `C[C@@H](Oc1c(I)c(C(=O)NC(CO)CO)c(I)c(C(=O)NC(CO)CO)c1I)C(=O)N(C)C[C@H](O)[C@@H](O)[C@@H](O)CO` [Beispiel 26, R-5(1((N-Methyl-N-2,3,4,5-tetrahydroxypentyl)aminocarbonyl)ethoxy)-2,4,6-trijodisophthalsäure-bis(1,3-dihydroxyisopropylamid)], for which the solubility was above 1000 mg/mL.
The same measure, in the same setting: the result for `CC(Oc1c(I)c(C(=O)NC(CO)CO)c(I)c(C(=O)NC(CO)CO)c1I)C(=O)N(C)C[C@H](O)[C@@H](O)[C@H](O)[C@H](O)CO` (stereo partly shown) [Beispiel 28 R,S] reads above 1000 mg/mL; that for `C[C@@H](Oc1c(I)c(C(=O)NC(CO)CO)c(I)c(C(=O)NC(CO)CO)c1I)C(=O)N(C)C[C@H](O)[C@@H](O)[C@H](O)[C@H](O)CO` [Beispiel 28 R], above 1000 mg/mL; that for `O=C(COc1c(I)c(C(=O)NCC(O)CO)c(I)c(C(=O)NCC(O)CO)c1I)NCCO` (stereo not shown) [Beispiel 31, 5-(2-Hydroxyethylaminocarbonylmethoxy)-2,4,6-trijodisophthalsäure-bis(2,3-dihydroxypropylamid)], 12 mg/mL (≈ 14.9 mM).
As to `CC(CO)(CO)NC(=O)COc1c(I)c(C(=O)NCC(O)CO)c(I)c(C(=O)NCC(O)CO)c1I` (stereo not shown) [Beispiel 33, 5-(1,3-Dihydroxy-2-methylisopropylaminocarbonylmethoxy)-2,4,6-trijod-isophthalsäure-bis(2,3-dihydroxypropylamid)], the solubility is above 1000 mg/mL.
Same read-out and setting: the value for `CN(CC(O)CO)C(=O)COc1c(I)c(C(=O)NCC(O)CO)c(I)c(C(=O)NCC(O)CO)c1I` (stereo not shown) [Beispiel 34, 5-(N-Methyl-N-2,3-dihydroxypropyl)aminocarbonylmethoxy-2,4,6-trijod-isophthalsäure-bis(2,3-dihydroxypropylamid)] was above 1000 mg/mL; that for `CN(C[C@H](O)[C@H](O)CO)C(=O)COc1c(I)c(C(=O)NCC(O)CO)c(I)c(C(=O)NCC(O)CO)c1I` (stereo partly shown) [Beispiel 35, 5-(N-Methyl-N-2,3,4-trihydroxybutyl)aminocarbonylmethoxy-2,4,6-trijod-isophthalsäure-bis(2,3-dihydroxypropylamid)] was above 1000 mg/mL; that for `CN(C[C@H](O)[C@@H](O)[C@@H](O)CO)C(=O)COc1c(I)c(C(=O)NCC(O)CO)c(I)c(C(=O)NCC(O)CO)c1I` (stereo partly shown) [Beispiel 36, 5-(N-Methyl-N-2,3,4,5-tetrahydroxypentyl)aminocarbonylmethoxy-2,4,6-trijodisophthalsäure-bis(2,3-dihydroxypropylamid)] was above 1000 mg/mL.

The series is the same for the next values; noted with them: water, bei 100 °C; read-out: Wasserlöslichkeit.
For the molecule `C[C@@H](Oc1c(I)c(C(=O)NC(CO)CO)c(I)c(C(=O)NC(CO)CO)c1I)C(=O)NC(CO)(CO)CO` [Beispiel 16, R(-)-5(1(1,3-Dihydroxy-2-hydroxymethyl-isopropylaminocarbonyl)ethoxy)-2,4,6-trijodisophthalsäure-bis(1,3-dihydroxyisopropylamid)], the solubility turned out to be 1000 mg/mL (≈ 1130 mM).

The series is the same for the next values; noted with them: water, bei Siedetemperatur; read-out: Wasserlöslichkeit.
For the molecule `CCOCCOCCOc1c(I)c(C(=O)NC(CO)CO)c(I)c(C(=O)NC(CO)CO)c1I` [Beispiel 1, 5-(3,6-Dioxaoctyl)oxy-2,4,6-trijodisophthalsäure-bis(1,3-dihydroxyiso-propylamid)], the solubility was found to be 1000 mg/mL (≈ 1220 mM).
Same read-out and setting: the value for `CNC(=O)COc1c(I)c(C(=O)NC(CO)CO)c(I)c(C(=O)NC(CO)CO)c1I` [Beispiel 11, 5-Methylaminocarbonylmethoxy-2,4,6-trijod-isophthalsäure-bis(1,3-di-hydroxyisopropylamid)] was 100 mg/mL (≈ 129 mM).
Take `CC(CO)(CO)NC(=O)COc1c(I)c(C(=O)NC(CO)CO)c(I)c(C(=O)NC(CO)CO)c1I` [Beispiel 15, 5-(1,3-Dihydroxy-2-methylisopropylaminocarbonyl)methoxy-2,4,6-trijodiso-phthalsäure-bis(1,3-dihydroxyisopropylamid)]: the solubility was 1000 mg/mL (≈ 1170 mM).
The same measure, in the same setting: the result for `CNC(=O)COc1c(I)c(C(=O)NCC(O)CO)c(I)c(C(=O)NCC(O)CO)c1I` (stereo not shown) [Beispiel 30, 5-Methylaminocarbonylmethoxy-2,4,6-trijodisophthalsäure-bis(2,3-di-hydroxypropylamid)] reads 20 mg/mL (≈ 25.7 mM); that for `O=C(COc1c(I)c(C(=O)NCC(O)CO)c(I)c(C(=O)NCC(O)CO)c1I)NCCO` (stereo not shown) [Beispiel 31, 5-(2-Hydroxyethylaminocarbonylmethoxy)-2,4,6-trijodisophthalsäure-bis(2,3-dihydroxypropylamid)], 130 mg/mL (≈ 161 mM).
Still for that read-out and setting: the result for `O=C(COc1c(I)c(C(=O)NCC(O)CO)c(I)c(C(=O)NCC(O)CO)c1I)NCC(O)CO` (stereo not shown) [Beispiel 32, 5-(2,3-Dihydroxypropylaminocarbonylmethoxy)-2,4,6-trijodisophthalsäure-bis(2,3-dihydroxypropylamid)] reads 100 mg/mL (≈ 119 mM).

Still in this series, the particulars now being: water, no temperature stated; read-out: Wasserlöslichkeit.
Take `O=C(NC(CO)CO)c1c(I)c(OCC(=O)N(CCO)CC(O)CO)c(I)c(C(=O)NC(CO)CO)c1I` (stereo not shown) [Beispiel 23, 5-(N-2-Hydroxyethyl-N-2,3-dihydroxypropyl)aminocarbonylmethoxy-2,4,6-trijodisophthalsäure-bis(1,3-dihydroxyisopropylamid)]: the solubility is above 1000 mg/mL.
The same measure, in the same setting: the result for `C[C@@H](Oc1c(I)c(C(=O)NC(CO)CO)c(I)c(C(=O)NC(CO)CO)c1I)C(=O)N(CCO)CC(O)CO` (stereo partly shown) [Beispiel 24, R-5(1((N-2-Hydroxyethyl-N-2,3-dihydroxypropyl)aminocarbonyl)ethoxy)-2,4,6-trijodisophthalsäure-bis(1,3-dihydroxyisopropylamid)] reads above 1000 mg/mL.
`CN(C[C@@H](O)[C@H](O)[C@H](O)CO)C(=O)COc1c(I)c(C(=O)NC(CO)CO)c(I)c(C(=O)NC(CO)CO)c1I` [Beispiel 25, 5-(N-Methyl-N-2,3,4,5-tetrahydroxypentyl)aminocarbonylmethoxy-2,4,6-trijodisophthalsäure-bis(1,3-dihydroxyisopropylamid)]: the solubility was above 1000 mg/mL.

For the origin of these results see patent EP0185130A1, “5-Alkoxy-2,4,6-triodo or tribromo-isophthalic-acid derivatives, process for their preparation and X-ray contrast agents containing them” (BRACCO INDUSTRIA CHIMICA Società per Azioni, priority 1984, dated 1986).
